Measured values as given in ChEMBL document CHEMBL4715829, “Heterodimeric Rifampicin-Tobramycin conjugates break intrinsic resistance of Pseudomonas aeruginosa to doxycycline and chloramphenicol in vitro and in a Galleria mellonella in vivo model” (Eur J Med Chem, 2019).
Converted amounts (≈) assume the structure as drawn.

Tests used:
[1] = tested on: Pseudomonas aeruginosa; assay: Antibacterial activity against Pseudomonas aeruginosa 101885 assessed as reduction in bacterial growth incubated for 18 hrs by broth microdilution assay; type: functional
[2] = tested on: Pseudomonas aeruginosa; assay: Antibacterial activity against Pseudomonas aeruginosa PAO1 assessed as fractional inhibitory concentration index in presence of Trimethoprim incubated for 18 hrs by broth microdilution assay based checkerboard assay; type: functional
[3] = Cytotoxicity against human HepG2 cells assessed as cell viability at <10 uM incubated for 48 hrs prestoblue assay; type: cell-based; conditions: read-out: Activity
[4] = tested on: Staphylococcus epidermidis; assay: Antibacterial activity against methicillin-resistance Staphylococcus epidermidis CAN-ICU 61589 (CAZ>32) assessed as reduction in bacterial growth incubated for 18 hrs by broth microdilution assay; type: functional
[5] = tested on: Pseudomonas aeruginosa; assay: Antibacterial activity against Pseudomonas aeruginosa PAO1 assessed as reduction in bacterial growth by measuring linezolid MIC at <=10 uM in presence of linezolid incubated for 18 hrs by broth microdilution assay based checkerboard assay (reference value: 1024 microg/ml); type: functional; conditions: dose microM <=10
[6] = tested on: Pseudomonas aeruginosa; assay: Antibacterial activity against Pseudomonas aeruginosa PAO1 assessed as reduction in bacterial growth by measuring nitrofurantoin MIC at <=10 uM in presence of nitrofurantoin incubated for 18 hrs by broth microdilution assay based checkerboard assay (reference value: 512 microg/ml); type: functional; conditions: dose microM <=10
[7] = tested on: Pseudomonas aeruginosa; assay: Antibacterial activity against Pseudomonas aeruginosa PAO1 assessed as fractional inhibitory concentration index in presence of Rifampicin incubated for 18 hrs by broth microdilution assay based checkerboard assay; type: functional
[8] = tested on: Pseudomonas aeruginosa; assay: Antibacterial activity against Pseudomonas aeruginosa PAO1 assessed as fractional inhibitory concentration index in presence of Fosfomycin incubated for 18 hrs by broth microdilution assay based checkerboard assay; type: functional
[9] = tested on: Pseudomonas aeruginosa; assay: Antibacterial activity against Pseudomonas aeruginosa PAO1 assessed as reduction in bacterial growth by measuring tigecycline MIC at <=10 uM in presence of tigecycline incubated for 18 hrs by broth microdilution assay based checkerboard assay (reference value: 4 microg/ml); type: functional; conditions: dose microM <=10
[10] = tested on: Pseudomonas aeruginosa; assay: Antibacterial activity against Pseudomonas aeruginosa PAO1 assessed as reduction in bacterial growth by measuring fosfomycin MIC at <=[…] uM in presence of fosfomycin incubated for 18 hrs by broth microdilution assay based checkerboard assay (reference value: […] microg/ml); type: functional; conditions: dose microM <=10
[11] = tested on: Enterococcus faecalis; assay: Antibacterial activity against Enterococcus faecalis ATCC 29212 assessed as reduction in bacterial growth incubated for 18 hrs by broth microdilution assay; type: functional
[12] = tested on: Staphylococcus aureus; assay: Antibacterial activity against Staphylococcus aureus ATCC 29213 assessed as reduction in bacterial growth incubated for 18 hrs by broth microdilution assay; type: functional
[13] = tested on: Pseudomonas aeruginosa; assay: Antibacterial activity against Pseudomonas aeruginosa PAO1 assessed as fractional inhibitory concentration index in presence of Minocycline incubated for 18 hrs by broth microdilution assay based checkerboard assay; type: functional
[14] = tested on: Pseudomonas aeruginosa; assay: Antibacterial activity against Pseudomonas aeruginosa PAO1 assessed as reduction in bacterial growth by measuring doxycycline MIC at <=[…] uM in presence of doxycycline incubated for 18 hrs by broth microdilution assay based checkerboard assay (reference value: […] microg/ml); type: functional; conditions: dose microM <=10
[15] = tested on: Pseudomonas aeruginosa; assay: Antibacterial activity against Pseudomonas aeruginosa PAO1 assessed as reduction in bacterial growth by measuring trimethoprim MIC at <=10 uM in presence of trimethoprim incubated for 18 hrs by broth microdilution assay based checkerboard assay (reference value: 64 microg/ml); type: functional; conditions: dose microM <=10
[16] = tested on: Pseudomonas aeruginosa; assay: Antibacterial activity against Pseudomonas aeruginosa 101243 assessed as reduction in bacterial growth incubated for 18 hrs by broth microdilution assay; type: functional
[17] = tested on: Escherichia coli; assay: Antibacterial activity against Escherichia coli ATCC 25922 assessed as reduction in bacterial growth incubated for 18 hrs by broth microdilution assay; type: functional
[18] = tested on: Pseudomonas aeruginosa; assay: Antibacterial activity against Pseudomonas aeruginosa PAO1 assessed as reduction in bacterial growth by measuring meropenem MIC at <=10 uM in presence of meropenem incubated for 18 hrs by broth microdilution assay based checkerboard assay (reference value: 1 microg/ml); type: functional; conditions: dose microM <=10
[19] = tested on: Pseudomonas aeruginosa; assay: Antibacterial activity against Pseudomonas aeruginosa PAO1 assessed as fractional inhibitory concentration index in presence of Novobiocin incubated for 18 hrs by broth microdilution assay based checkerboard assay; type: functional
[20] = tested on: Pseudomonas aeruginosa; assay: Antibacterial activity against gentamicin, tobramycin-resistant Pseudomonas aeruginosa CANWARD 96846 assessed as reduction in bacterial growth incubated for 18 hrs by broth microdilution assay; type: functional
[21] = tested on: Pseudomonas aeruginosa; assay: Antibacterial activity against Pseudomonas aeruginosa PAO1 assessed as reduction in bacterial growth by measuring chloramphenicol MIC at <=[…] uM in presence of chloramphenicol incubated for 18 hrs by broth microdilution assay based checkerboard assay (reference value: […] microg/ml); type: functional; conditions: dose microM <=10
[22] = tested on: Pseudomonas aeruginosa; assay: Antibacterial activity against Pseudomonas aeruginosa PAO1 assessed as reduction in bacterial growth by measuring moxifloxacin MIC at <=10 uM in presence of moxifloxacin incubated for 18 hrs by broth microdilution assay based checkerboard assay (reference value: 1 microg/ml); type: functional; conditions: dose microM <=10
[23] = tested on: Pseudomonas aeruginosa; assay: Antibacterial activity against Pseudomonas aeruginosa PAO1 assessed as reduction in bacterial growth by measuring clindamycin MIC at <=10 uM in presence of clindamycin incubated for 18 hrs by broth microdilution assay based checkerboard assay (reference value: 1024 microg/ml); type: functional; conditions: dose microM <=10
[24] = Cytotoxicity against human HepG2 cells assessed as cell viability at 50 uM incubated for 48 hrs by prestoblue assay; type: cell-based; conditions: read-out: Activity
[25] = tested on: Pseudomonas aeruginosa; assay: Antibacterial activity against Pseudomonas aeruginosa PAO1 assessed as fractional inhibitory concentration index in presence of Meropenem incubated for 18 hrs by broth microdilution assay based checkerboard assay; type: functional
[26] = tested on: Pseudomonas aeruginosa; assay: Antibacterial activity against Pseudomonas aeruginosa PAO1 assessed as fractional inhibitory concentration index in presence of Pleuromutilin incubated for 18 hrs by broth microdilution assay based checkerboard assay; type: functional
[27] = Cytotoxicity against human HEK293 cells assessed as cell viability at <10 uM incubated for 48 hrs by prestoblue assay; type: cell-based; conditions: read-out: Activity
[28] = tested on: Enterococcus faecium; assay: Antibacterial activity against Enterococcus faecium ATCC 27270 assessed as reduction in bacterial growth incubated for 18 hrs by broth microdilution assay; type: functional
[29] = tested on: Pseudomonas aeruginosa; assay: Antibacterial activity against Pseudomonas aeruginosa PAO1 assessed as reduction in bacterial growth by measuring tobramycin MIC at <=10 uM in presence of tobramycin incubated for 18 hrs by broth microdilution assay based checkerboard assay (reference value: 1 microg/ml); type: functional; conditions: dose microM <=10
[30] = tested on: Pseudomonas aeruginosa; assay: Antibacterial activity against Pseudomonas aeruginosa 101243 assessed as fractional inhibitory concentration index in presence of doxycycline incubated for 18 hrs by broth microdilution assay; type: functional
[31] = tested on: Pseudomonas aeruginosa; assay: Antibacterial activity against Pseudomonas aeruginosa 260-97103 assessed as fractional inhibitory concentration index in presence of doxycycline incubated for 18 hrs by broth microdilution assay; type: functional
[32] = tested on: Pseudomonas aeruginosa; assay: Antibacterial activity against Pseudomonas aeruginosa 100036 assessed as fractional inhibitory concentration index in presence of doxycycline incubated for 18 hrs by broth microdilution assay; type: functional
[33] = tested on: Pseudomonas aeruginosa; assay: Antibacterial activity against Pseudomonas aeruginosa 262-101856 assessed as fractional inhibitory concentration index in presence of chloramphenicol incubated for 18 hrs by broth microdilution assay; type: functional
[34] = tested on: Pseudomonas aeruginosa; assay: Antibacterial activity against Pseudomonas aeruginosa 100036 assessed as fractional inhibitory concentration index in presence of chloramphenicol incubated for 18 hrs by broth microdilution assay; type: functional
[35] = tested on: Pseudomonas aeruginosa; assay: Antibacterial activity against Pseudomonas aeruginosa 259-96918 assessed as fractional inhibitory concentration index in presence of chloramphenicol incubated for 18 hrs by broth microdilution assay; type: functional

SMILES: CO[C@H]1/C=C/O[C@@]2(C)Oc3c(C)c(O)c4c(O)c(c(/C=N/N5CCN(Cc6cn(CCCCO[C@@H]7[C@@H](O[C@H]8O[C@H](CO)[C@@H](O)[C@H](N)[C@H]8O)[C@H](N)C[C@H](N)[C@H]7O[C@H]7O[C@H](CN)[C@@H](O)C[C@H]7N)nn6)CC5)c(O)c4c3C2=O)NC(=O)/C(C)=C\C=C\[C@H](C)[C@H](O)[C@@H](C)[C@@H](O)[C@@H](C)[C@H](OC(C)=O)[C@@H]1C.O=C(O)C(F)(F)F.O=C(O)C(F)(F)F.O=C(O)C(F)(F)F.O=C(O)C(F)(F)F.O=C(O)C(F)(F)F
- MIC [1]: 256 µg/mL
- fractional inhibitory concentration index (FICI) [2]: 1.03
- viability at 48 h [3]: > 90%
- MIC [4]: 2 µg/mL
- MIC [5]: 1020 µg/mL
- MIC [6]: 512 µg/mL
- fractional inhibitory concentration index (FICI) [7]: 0.28
- fractional inhibitory concentration index (FICI) [8]: 1.03
- MIC [9]: 2 µg/mL
- MIC [10]: 16 µg/mL
- MIC [11]: > 32 µg/mL
- MIC [12]: 4 µg/mL
- fractional inhibitory concentration index (FICI) [13]: 0.26
- MIC [14]: 1 µg/mL
- MIC [15]: 64 µg/mL
- MIC [16]: 256 µg/mL
- MIC [17]: > 32 µg/mL
- MIC [18]: 1 µg/mL
- fractional inhibitory concentration index (FICI) [19]: 0.53
- MIC [20]: > 32 µg/mL
- MIC [21]: 8 µg/mL
- MIC [22]: 1 µg/mL
- MIC [23]: 512 µg/mL
- viability at 48 h, 50 µM [24]: > 70%
- fractional inhibitory concentration index (FICI) [25]: 1.03
- fractional inhibitory concentration index (FICI) [26]: 1.03
- viability at 48 h [27]: > 90%
- MIC [28]: 32 µg/mL
- MIC [29]: 1 µg/mL

SMILES: CO[C@H]1/C=C/O[C@@]2(C)Oc3c(C)c(O)c4c(O)c(c(/C=N/N5CCN(Cc6cn(CCCCCCCCCCCCO[C@@H]7[C@@H](O[C@H]8O[C@H](CO)[C@@H](O)[C@H](N)[C@H]8O)[C@H](N)C[C@H](N)[C@H]7O[C@H]7O[C@H](CN)[C@@H](O)C[C@H]7N)nn6)CC5)c(O)c4c3C2=O)NC(=O)/C(C)=C\C=C\[C@H](C)[C@H](O)[C@@H](C)[C@@H](O)[C@@H](C)[C@H](OC(C)=O)[C@@H]1C.O=C(O)C(F)(F)F.O=C(O)C(F)(F)F.O=C(O)C(F)(F)F.O=C(O)C(F)(F)F.O=C(O)C(F)(F)F
- fractional inhibitory concentration index (FICI) [30]: 0.094
- MIC [1]: 256 µg/mL
- fractional inhibitory concentration index (FICI) [2]: 0.28
- viability at 48 h [3]: > 90%
- MIC [4]: 8 µg/mL
- MIC [5]: 256 µg/mL
- MIC [6]: 256 µg/mL
- fractional inhibitory concentration index (FICI) [7]: 0.15
- fractional inhibitory concentration index (FICI) [8]: 0.28
- MIC [9]: 2 µg/mL
- MIC [10]: 4 µg/mL
- MIC [11]: > 32 µg/mL
- fractional inhibitory concentration index (FICI) [31]: <0.133
- MIC [12]: 16 µg/mL
- fractional inhibitory concentration index (FICI) [32]: 0.07
- fractional inhibitory concentration index (FICI) [13]: 0.28
- fractional inhibitory concentration index (FICI) [33]: <0.125
- MIC [14]: 1 µg/mL
- MIC [15]: 16 µg/mL
- fractional inhibitory concentration index (FICI) [34]: 0.067
- MIC [16]: 256 µg/mL
- MIC [17]: 16 µg/mL
- MIC [18]: 1 µg/mL
- fractional inhibitory concentration index (FICI) [19]: 0.28
- MIC [20]: > 32 µg/mL
- MIC [21]: 2 µg/mL
- MIC [22]: 1 µg/mL
- fractional inhibitory concentration index (FICI) [35]: <0.625
- MIC [23]: 256 µg/mL
- viability at 48 h, 50 µM [24]: > 70%
- fractional inhibitory concentration index (FICI) [25]: 1.03
- fractional inhibitory concentration index (FICI) [26]: 0.53
- viability at 48 h [27]: > 90%
- MIC [28]: > 32 µg/mL
- MIC [29]: 1 µg/mL

SMILES: CO[C@H]1/C=C/O[C@@]2(C)Oc3c(C)c(O)c4c(O)c(c(/C=N/N5CCN(C)CC5)c(O)c4c3C2=O)NC(=O)/C(C)=C\C=C\[C@H](C)[C@H](O)[C@@H](C)[C@@H](O)[C@@H](C)[C@H](OC(C)=O)[C@@H]1C [RIFAMPIN]
- fractional inhibitory concentration index (FICI) [30]: 1.5
- MIC [1]: 32 µg/mL (≈ 38.9 µM)
- MIC [4]: ≤ 0.25 µg/mL
- MIC [11]: 1 µg/mL (≈ 1.22 µM)
- MIC [12]: ≤ 0.25 µg/mL
- fractional inhibitory concentration index (FICI) [33]: 1.5
- fractional inhibitory concentration index (FICI) [34]: 1.5
- MIC [16]: 4 µg/mL (≈ 4.86 µM)
- MIC [17]: 8 µg/mL (≈ 9.72 µM)
- MIC [20]: 32 µg/mL (≈ 38.9 µM)
- MIC [28]: ≤ 0.25 µg/mL
